# In ChEMBL document CHEMBL3769371, “1-[(2E)-3-Phenylprop-2-enoyl]-1H-benzimidazoles as anticancer agents: synthesis, crystal structure analysis and binding studies of the most potent anticancer molecule with serum albumin” (Medchemcomm, 2015):
# Key:
# A549 = experiment: Cytotoxicity against human A549 cells assessed as cell growth at 10^-5 M after 48 hrs by SRB assay; type: functional; details: A549, 48 h, read-out: Activity
# Albumin [1] = molecular target: T1, Albumin (Homo sapiens, UniProt P02768); experiment: Binding affinity to human serum albumin at 0.25 to 2 uM at 303 K by fluorescence microscopic analysis in the presence of digitoxin; type: ADME; details: isolated protein
# T1 sequence (P02768 whole entry): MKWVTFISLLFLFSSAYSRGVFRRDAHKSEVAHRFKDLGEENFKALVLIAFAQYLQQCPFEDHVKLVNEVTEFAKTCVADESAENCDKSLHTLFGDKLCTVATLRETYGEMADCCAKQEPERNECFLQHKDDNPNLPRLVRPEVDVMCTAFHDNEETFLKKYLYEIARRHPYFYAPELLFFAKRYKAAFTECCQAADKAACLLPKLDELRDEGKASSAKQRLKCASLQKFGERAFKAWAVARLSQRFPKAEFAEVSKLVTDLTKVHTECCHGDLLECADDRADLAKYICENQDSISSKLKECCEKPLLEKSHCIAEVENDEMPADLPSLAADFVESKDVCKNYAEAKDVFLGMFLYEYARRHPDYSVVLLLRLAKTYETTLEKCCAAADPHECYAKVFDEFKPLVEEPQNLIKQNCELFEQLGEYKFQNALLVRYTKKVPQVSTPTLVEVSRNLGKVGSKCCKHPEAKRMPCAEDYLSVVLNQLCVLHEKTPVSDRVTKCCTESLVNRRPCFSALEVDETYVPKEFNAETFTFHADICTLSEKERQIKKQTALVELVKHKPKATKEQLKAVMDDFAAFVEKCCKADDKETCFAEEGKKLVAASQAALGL
# NCI-H23 = experiment: Cytotoxicity against human NCI-H23 cells assessed as cell growth at 10^-5 M after 48 hrs by SRB assay; type: functional; details: NCI-H23, 48 h, read-out: Activity
# [2] = Cytotoxicity against human OVCAR3 cells after 48 hrs by SRB assay; type: functional; details: OVCAR-3, 48 h
# T47D = experiment: Cytotoxicity against human T47D cells after 48 hrs by SRB assay; type: functional
# [3] = Antiproliferative activity against human SKOV3 cells at 10'5 M; type: functional, SK-OV-3
# NCI-H460 [4] = experiment: Cytotoxicity against human NCI-H460 cells assessed as cell growth at 10^-5 M after 48 hrs by SRB assay; type: functional; details: NCI-H460, 48 h, read-out: Activity
# [5] = Cytotoxicity against human DU145 cells after 48 hrs by SRB assay; type: functional; details: DU-145, 48 h
# CCRF-CEM = experiment: Cytotoxicity against human CCRF-CEM cells assessed as cell growth at 10^-5 M after 48 hrs by SRB assay; type: functional; details: read-out: Activity
# 786-0 = experiment: Cytotoxicity against human 786-0 cells assessed as cell growth at 10^-5 M after 48 hrs by SRB assay; type: functional; details: 786-0, 48 h, read-out: Activity
# K562 = experiment: Cytotoxicity against human K562 cells assessed as cell growth at 10^-5 M after 48 hrs by SRB assay; type: functional; details: K562, 48 h, read-out: Activity
# KM12 = experiment: Cytotoxicity against human KM12 cells assessed as cell growth at 10^-5 M after 48 hrs by SRB assay; type: functional; details: KM12, 48 h, read-out: Activity
# Albumin [6] = molecular target: T1, Albumin; experiment: Binding affinity to human serum albumin at 0.25 uM at 303 K by fluorescence microscopic analysis in the presence of Ni2+; type: ADME; details: isolated protein
# [7] = Cytotoxicity against human RXF393 cells after 48 hrs by SRB assay; type: functional; details: RXF 393, 48 h
# [8] = Cytotoxicity against human LOXIMVI cells assessed as cell growth at 10^-5 M after 48 hrs by SRB assay; type: functional; details: LOX IMVI, read-out: Activity
# MDA-MB-231 [9] = experiment: Cytotoxicity against human MDA-MB-231 cells after 48 hrs by SRB assay; type: functional; details: MDA-MB-231, 48 h
# MCF7 [10] = experiment: Cytotoxicity against human MCF7 cells assessed as cell growth at 10^-5 M after 48 hrs by SRB assay; type: functional; details: MCF7, 48 h, read-out: Activity
# [11] = Cytotoxicity against human OVCAR8 cells after 48 hrs by SRB assay; type: functional; details: OVCAR-8, 48 h
# [12] = Cytotoxicity against human COLO205 cells assessed as cell growth at 10^-5 M after 48 hrs by SRB assay; type: functional; details: COLO 205, 48 h, read-out: Activity
# [13] = Cytotoxicity against human SF539 cells after 48 hrs by SRB assay; type: functional; details: SF-539, 48 h
# MDA-MB-231 [14] = experiment: Cytotoxicity against human MDA-MB-231 cells assessed as cell growth at 10^-5 M after 48 hrs by SRB assay; type: functional; details: MDA-MB-231, 48 h, read-out: Activity
# [15] = Cytotoxicity against human OVCAR4 cells assessed as cell growth at 10^-5 M after 48 hrs by SRB assay; type: functional; details: OVCAR-4, 48 h, read-out: Activity
# Malme-3M = experiment: Cytotoxicity against human MALME-3M cells after 48 hrs by SRB assay; type: functional
# [16] = Cytotoxicity against human HOP62 cells after 48 hrs by SRB assay; type: functional; details: HOP-62, 48 h
# MCF7 [17] = experiment: Cytotoxicity against human MCF7 cells after 48 hrs by SRB assay; type: functional; details: MCF7, 48 h
# [18] = Antiproliferative activity against human DU145 cells at 10'5 M; type: functional, DU-145
# U-251 = experiment: Cytotoxicity against human U251 cells after 48 hrs by SRB assay; type: functional; details: U-251, 48 h
# [19] = Cytotoxicity against human SNB75 cells after 48 hrs by SRB assay; type: functional; details: SNB-75, 48 h
# [20] = Cytotoxicity against human TK10 cells after 48 hrs by SRB assay; type: functional; details: TK-10, 48 h
# NCI-H226 [21] = experiment: Cytotoxicity against human NCI-H226 cells assessed as cell growth at 10^-5 M after 48 hrs by SRB assay; type: functional; details: NCI-H226, 48 h, read-out: Activity
# NCI-H226 [22] = experiment: Cytotoxicity against human NCI-H226 cells after 48 hrs by SRB assay; type: functional; details: NCI-H226, 48 h
# [23] = Cytotoxicity against human SKOV3 cells assessed as cell growth at 10^-5 M after 48 hrs by SRB assay; type: functional; details: SK-OV-3, 48 h, read-out: Activity
# NCI-H460 [24] = experiment: Antiproliferative activity against human NCI-H460 cells at 10'5 M; type: functional
# [25] = Cytotoxicity against human HL-60(TB) cells assessed as cell growth at 10^-5 M after 48 hrs by SRB assay; type: functional; details: HL-60, 48 h, read-out: Activity
# Albumin [26] = molecular target: T1, Albumin; experiment: Binding affinity to human serum albumin at 0.25 to 2 uM at 303 K by fluorescence microscopic analysis in the presence of ibuprofen; type: ADME; details: isolated protein
# [27] = Cytotoxicity against human UO31 cells after 48 hrs by SRB assay; type: functional; details: UO-31, 48 h
# [28] = Cytotoxicity against human PC3 cells assessed as cell growth at 10^-5 M after 48 hrs by SRB assay; type: functional; details: PC-3, 48 h, read-out: Activity
# NCI-H460 [29] = experiment: Cytotoxicity against human NCI-H460 cells after 48 hrs by SRB assay; type: functional; details: NCI-H460, 48 h
# [30] = read-out: LC50 (the source's name)
smiles,measurement,setting,value
O=C(/C=C/c1ccccc1)n1c(-c2ccc(Cl)cc2)nc2ccccc21,growth at 10 µM,A549,-4.99%
same,K,Albumin [1],5.73 ×10³ /M
same,growth at 10 µM,NCI-H23,-24.5%
same,GI50,[2],1.95 µM
same,TGI,[2],4.63 µM
same,CC50,[2]; [30],13.4 µM
same,GI50,T47D,1.73 µM
same,TGI,T47D,7.68 µM
same,CC50,T47D; [30],57.5 µM
same,growth inhibition (GI),[3],76.05%
same,growth at 10 µM,NCI-H460 [4],0.54%
same,GI50,[5],1.8 µM
same,TGI,[5],4.93 µM
same,CC50,[5]; [30],17 µM
same,growth at 10 µM,CCRF-CEM,-23.9%
same,growth at 10 µM,786-0,-17.6%
same,growth at 10 µM,K562,39.8%
same,growth at 10 µM,KM12,-62.9%
same,K,Albumin [6],5.35 ×10³ /mol
same,GI50,[7],1.32 µM
same,TGI,[7],3.12 µM
same,CC50,[7]; [30],7.37 µM
same,growth at 10 µM,[8],-82.9%
same,GI50,MDA-MB-231 [9],1.88 µM
same,TGI,MDA-MB-231 [9],5.18 µM
same,CC50,MDA-MB-231 [9]; [30],25.4 µM
same,growth at 10 µM,MCF7 [10],10.3%
same,GI50,[11],1.74 µM
same,TGI,[11],4.21 µM
same,CC50,[11]; [30],10.5 µM
same,growth at 10 µM,[12],-60.8%
same,GI50,[13],2.5 µM
same,TGI,[13],6.46 µM
same,CC50,[13]; [30],26.1 µM
same,growth at 10 µM,MDA-MB-231 [14],-26.5%
same,growth at 10 µM,[15],30%
same,GI50,Malme-3M,0.59 µM
same,TGI,Malme-3M,1.91 µM
same,CC50,Malme-3M; [30],4.77 µM
same,GI50,[16],1.89 µM
same,TGI,[16],7.3 µM
same,CC50,[16]; [30],35.1 µM
same,GI50,MCF7 [17],1.01 µM
same,TGI,MCF7 [17],9.92 µM
same,CC50,MCF7 [17]; [30],55.5 µM
same,growth inhibition (GI),[18],88.87%
same,GI50,U-251,1.44 µM
same,TGI,U-251,3.77 µM
same,CC50,U-251; [30],9.91 µM
same,GI50,[19],3.13 µM
same,TGI,[19],12.8 µM
same,CC50,[19]; [30],40.5 µM
same,GI50,[20],2.35 µM
same,TGI,[20],7.93 µM
same,CC50,[20]; [30],28 µM
same,growth at 10 µM,NCI-H226 [21],-55.3%
same,GI50,NCI-H226 [22],1.46 µM
same,TGI,NCI-H226 [22],3.82 µM
same,CC50,NCI-H226 [22]; [30],10 µM
same,growth at 10 µM,[23],23.9%
same,growth inhibition (GI),NCI-H460 [24],99.46%
same,growth at 10 µM,[25],-3.97%
same,K,Albumin [26],5.63 ×10³ /M
same,GI50,[27],1.1 µM
same,TGI,[27],3.55 µM
same,CC50,[27]; [30],12.9 µM
same,growth at 10 µM,[28],6.09%
same,GI50,NCI-H460 [29],1.96 µM
same,TGI,NCI-H460 [29],6.52 µM
same,CC50,NCI-H460 [29]; [30],25.5 µM
